# Measurements as given in article PMC10797614, “MYC-Targeting Inhibitors Generated from a Stereodiversified Bicyclic Peptide Library” (Journal of the American Chemical Society, 2024).
# *1 amine or outer side, *2 acyl side, *3 side chain or, on linkers, in order; H or OH if unused. Where a SMILES comes first, the peptide text is derived from it. Bridges are numbered along the chain shown (N, C = ends). X1 = O=C([C@@H]1C[C@H](C=CCO[*:3])C[C@@H]1C=CCO[*:1])[*:2]
# Molecular target: T1, MYC (Homo sapiens, UniProt P01106)
# T1 construct: made in house; host or cells: E. coli BL21(DE3)
# T1 sequence (P01106 16-454): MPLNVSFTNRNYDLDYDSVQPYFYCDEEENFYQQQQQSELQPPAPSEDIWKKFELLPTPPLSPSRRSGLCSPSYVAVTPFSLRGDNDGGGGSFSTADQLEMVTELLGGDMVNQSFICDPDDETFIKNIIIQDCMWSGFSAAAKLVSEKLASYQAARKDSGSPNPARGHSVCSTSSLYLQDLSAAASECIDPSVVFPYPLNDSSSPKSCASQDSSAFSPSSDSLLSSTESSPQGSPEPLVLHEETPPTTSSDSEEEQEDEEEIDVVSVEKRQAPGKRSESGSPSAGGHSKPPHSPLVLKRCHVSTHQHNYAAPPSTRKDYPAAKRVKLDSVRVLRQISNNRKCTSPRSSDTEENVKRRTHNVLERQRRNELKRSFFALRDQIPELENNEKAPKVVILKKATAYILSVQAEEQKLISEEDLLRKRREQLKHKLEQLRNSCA
# Assay: Temperature-dependent circular dichroism spectroscopy
# Assay type: binding
# Details: NT-B2R 100 μM, MYC 0.1 mg/mL, 0.1 M phosphate buffer pH 7.4, 30 °C to 60 °C
# Source text: To further study the nature of the interaction between NT-B2R and MYC, we leveraged temperature-dependent circular dichroism (CD) spectroscopy. Here, if no conformation change was involved, the CD spectra of the MYC/NT-B2R mixture would be the addition of each component’s spectra (Figure 3J, calculated). However, we observed drastically different CD spectra (Figure 3J, measured and difference).
# Protein thermal shift assay with GlomeltTM
# Follow the Biotium’s protocol PI-3302133022. The reactions were set up in qPCR tubes, for each tube 1 μg recombinant MYC protein (1 μg/μL, 1 μL), GlomeltTM dye (10x, 2 μL), peptide ligand (2x, 10 uL, final concentration 500 μM), PBS (1x, 7 uL) to make a total volume of 20 μL with triplicate. For control group, PBS (1x, 17 μL) was used without peptide ligand. […] The resulting curve was fitted with a Boltzmann curve within the range of 45-60 °C and Tm was calculated from the fitted curve. […]
# NT-B2R peptide and MYC protein were diluted to the final working concentrations of 100 μM and 0.1 mg/mL respectively. […] Spectra in the 180-280 nm range were recorded in a 1 mm path length cell.
# The collected CD spectra were processed in OriginProTM. […] Spectra addition and subtraction were performed before the matrix conversion to generate the calculated and difference […]
smiles,measurement,value
CC(C)C[C@@H]1NC(=O)[C@H](CCCNC(=N)N)NC(=O)[C@@H]2CCCCNC(=O)[C@@H]3C[C@H](C=CCOC(=O)CC[C@@H](C(N)=O)NC1=O)C[C@@H]3C=CCOC(=O)CC[C@H](N)C(=O)N[C@@H](Cc1c[nH]c3ccccc13)C(=O)N1CCC[C@H]1C(=O)N[C@@H](Cc1c[nH]cn1)C(=O)N[C@@H](CCCNC(=N)N)C(=O)N2 [NT-B2R] (H-EWPHRKRLE-NH2; linker 1-6-9 via X1; N-terminus and C-terminus assumed),CD spectra of MYC/peptide mixture versus calculated sum (in words),significant changes in the conformation landscape
